Laboratory results from US20240145031A1, “Methods and devices for drug repositioning and drug repurposing as nuclear receptor modulators” (Precision Medicine Lab, priority 2022, published 2024).
Like-named read-outs stand apart in the source and are kept apart here.

What was measured:
[1] = target: T1, glucocorticoid receptor recombinant human protein, ligand binding domain (LBD) (Homo sapiens, UniProt P04150); test: nuclear receptor cofactor recruitment peptide array (70 coregulator peptides), ligand induced cofactor peptide interaction profiling; format: biochemical; settings: for weighted log fold change: example 3, weight factors of table 7
T1 construct: purchased Thermo Fisher Scientific A15668
T1 sequence (P04150 524-758 limits assumed): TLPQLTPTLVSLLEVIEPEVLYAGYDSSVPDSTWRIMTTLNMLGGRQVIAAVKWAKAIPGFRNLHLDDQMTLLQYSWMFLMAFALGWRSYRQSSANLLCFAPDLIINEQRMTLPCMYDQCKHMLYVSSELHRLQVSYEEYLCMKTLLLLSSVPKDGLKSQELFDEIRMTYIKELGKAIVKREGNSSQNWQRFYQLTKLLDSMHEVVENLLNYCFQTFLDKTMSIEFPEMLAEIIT
Description: Interactions between the glucocorticoid receptor ligand binding domain and the selected drugs for repurposing and coregulator peptides were determined using the method as described by Zalachoras et al 2013^xxvii Each peptide array consisting of 70 coregulator peptides as described in table 1 were incubated with a reaction mixture of 1 nM purified glucocorticoid receptor recombinant human protein, ligand binding domain (LBD), (Thermo Fisher Scientific, cat #A15668), ALEXA488-conjugated anti-GST antibody and buffer F (PV4689, A-11131, and PV4547; Invitrogen). […] For ligand induced cofactor peptide interaction profiling the set of repurposing drugs were tested at a concentration of 0.05 mM compared to solvent (2% DMSO in water). Incubation was performed at 20° C. on the cofactor peptide array. Glucocorticoid receptor binding to each peptide on the array, reflected by fluorescent signal, was quantified by image analysis using R-based software (Precision Medicine Lab). The 70 coregulator peptides used represent a range of coregulator nuclear receptor-boxes known to interact with the glucocorticoid receptor and other nuclear receptors. The binding profiles were generated for glucocorticoid receptor-LBD treated with the repurposing drugs vs cortisol.
The R2 is calculated using the data for each of the 70 cofactor peptides using the same weight.
In this example a weight factor was applied on the log fold change data of example 1 to determine the similarities between the tested repositioning drugs versus cortisol using the coefficient of determination, R2, between the weighted log fold change data of the tested repurposing drug to the positive control, cortisol. […] In this example 14 cofactor peptides were used (table 3).

[2] = target: T1, glucocorticoid receptor recombinant human protein, ligand binding domain (LBD); test: as above; format: biochemical; settings: example 3, weight factors of table 7

Compound: C[C@]12CCC(=O)C=C1CC[C@@H]1[C@@H]2[C@@H](O)C[C@@]2(C)[C@H]1CC[C@]2(O)C(=O)CO [PC, Cortisol]
- binding to coregulator peptide no 22 NCOA1_1421_1444 compared to the negative control (NC), DMSO ([1]; FIG. 2, 0.05 mM): increased binding
- weighted log fold change ([1]; peptide 24 NCOA1_738_759): 0.168
- weighted log fold change ([1]; peptide 26 NCOA2_679_700): 0.056
- weighted log fold change ([1]; peptide 27 NCOA2_734_755): 0.366
- weighted log fold change ([1]; peptide 52 PELP1_21_42): 0.028
- weighted log fold change ([1]; peptide 58 PRGC1_134_154): 0.835
- weighted log fold change ([1]; peptide 59 PRGC2_146_166): 0.113
- weighted log fold change ([1]; peptide 63 TIF1A_748_769): 0.058
- weighted log fold change ([1]; peptide 68 UBE3A_650_671): 0.357
- weighted log fold change ([1]; peptide 70 ZNHI3_90_111): 0.025
- log fold change ([1]; example 4, weight factor of 1, peptide 11 IKBB_278_299): 0.611
- log fold change ([1]; example 4, weight factor of 1, peptide 27 NCOA2_734_755): 1.465
- log fold change ([1]; example 4, weight factor of 1, peptide 59 PRGC2_146_166): 0.902
- log fold change ([1]; example 4, weight factor of 1, peptide 68 UBE3A_650_671): 1.430
- log fold change ([1]; peptide 1 ANDR_11_32, 0.05 mM vs solvent (2% DMSO)): 0.549
- log fold change ([1]; peptide 2 CBP_2056_2077, 0.05 mM vs solvent (2% DMSO)): 0.473
- log fold change ([1]; peptide 3 CENPR_159_177, 0.05 mM vs solvent (2% DMSO)): 0.669
- log fold change ([1]; peptide 4 CHD9_1024_1045, 0.05 mM vs solvent (2% DMSO)): 0.375
- log fold change ([1]; peptide 5 CNOT1_141_162, 0.05 mM vs solvent (2% DMSO)): 0.446
- log fold change ([1]; peptide 6 CNOT1_558_579, 0.05 mM vs solvent (2% DMSO)): 0.386
- log fold change ([1]; peptide 7 DHX30_49_70, 0.05 mM vs solvent (2% DMSO)): 0.446
- log fold change ([1]; peptide 8 EP300_2040_2061, 0.05 mM vs solvent (2% DMSO)): 0.383
- log fold change ([1]; peptide 9 EP300_70_91, 0.05 mM vs solvent (2% DMSO)): 0.813
- log fold change ([1]; peptide 11 IKBB_278_299, 0.05 mM vs solvent (2% DMSO)): 0.611
- log fold change ([1]; peptide 13 KMT2D_2674_2695, 0.05 mM vs solvent (2% DMSO)): 0.589
- log fold change ([1]; peptide 14 LCOR_41_62, 0.05 mM vs solvent (2% DMSO)): 1.238
- log fold change ([1]; peptide 15 MAPE_250_271, 0.05 mM vs solvent (2% DMSO)): 0.090
- log fold change ([1]; peptide 16 MAPE_301_322, 0.05 mM vs solvent (2% DMSO)): −0.294
- log fold change ([1]; peptide 17 MED1_593_614, 0.05 mM vs solvent (2% DMSO)): 0.949
- log fold change ([1]; peptide 18 MEN1_256_277, 0.05 mM vs solvent (2% DMSO)): 0.192
- log fold change ([1]; peptide 19 MGMT_87_108, 0.05 mM vs solvent (2% DMSO)): 0.250
- log fold change ([1]; peptide 20 MLL2_4176_4197, 0.05 mM vs solvent (2% DMSO)): 0.650
- log fold change ([1]; peptide 21 MLL2_4703_4724, 0.05 mM vs solvent (2% DMSO)): 0.531
- log fold change ([1]; peptide 22 NCOA1_1421_1441, 0.05 mM vs solvent (2% DMSO)): 1.715
- log fold change ([1]; peptide 23 NCOA1_679_700, 0.05 mM vs solvent (2% DMSO)): 1.097
- log fold change ([1]; peptide 24 NCOA1_738_759, 0.05 mM vs solvent (2% DMSO)): 1.340
- log fold change ([1]; peptide 25 NCOA2_630_651, 0.05 mM vs solvent (2% DMSO)): 1.253
- log fold change ([1]; peptide 26 NCOA2_679_700, 0.05 mM vs solvent (2% DMSO)): 1.777
- log fold change ([1]; peptide 27 NCOA2_734_755, 0.05 mM vs solvent (2% DMSO)): 1.465
- log fold change ([1]; peptide 28 NCOA2_867_888, 0.05 mM vs solvent (2% DMSO)): 0.263
- log fold change ([1]; peptide 29 NCOA3_610_631, 0.05 mM vs solvent (2% DMSO)): 1.176
- log fold change ([1]; peptide 30 NCOA3_674_695, 0.05 mM vs solvent (2% DMSO)): 0.197
- log fold change ([1]; peptide 31 NCOA3_726_747, 0.05 mM vs solvent (2% DMSO)): 1.029
- log fold change ([1]; peptide 32 NCOA4_316_337, 0.05 mM vs solvent (2% DMSO)): 0.839
- log fold change ([1]; peptide 34 NCOR1_1925_1946, 0.05 mM vs solvent (2% DMSO)): 0.398
- log fold change ([1]; peptide 35 NCOR1_2040_2061, 0.05 mM vs solvent (2% DMSO)): 0.391
- log fold change ([1]; peptide 36 NELFB_329_350, 0.05 mM vs solvent (2% DMSO)): 0.195
- log fold change ([1]; peptide 38 NR0B1_2_23, 0.05 mM vs solvent (2% DMSO)): 0.415
- log fold change ([1]; peptide 39 NR0B2_107_128, 0.05 mM vs solvent (2% DMSO)): 1.538
- log fold change ([1]; peptide 41 NRIP1_174_195, 0.05 mM vs solvent (2% DMSO)): 0.213
- log fold change ([1]; peptide 42 NRIP1_369_390, 0.05 mM vs solvent (2% DMSO)): 1.027
- log fold change ([1]; peptide 43 NRIP1_489_510, 0.05 mM vs solvent (2% DMSO)): 0.954
- log fold change ([1]; peptide 44 NRIP1_701_722, 0.05 mM vs solvent (2% DMSO)): 0.609
- log fold change ([1]; peptide 45 NRIP1_810_831, 0.05 mM vs solvent (2% DMSO)): 0.909
- log fold change ([1]; peptide 46 NRIP1_925_946, 0.05 mM vs solvent (2% DMSO)): 0.970
- log fold change ([1]; peptide 47 NSD1_895_916, 0.05 mM vs solvent (2% DMSO)): 0.886
- log fold change ([1]; peptide 48 PAGR1_103_124, 0.05 mM vs solvent (2% DMSO)): 1.057
- log fold change ([1]; peptide 49 PAK6_249_270, 0.05 mM vs solvent (2% DMSO)): 0.362
- log fold change ([1]; peptide 50 PCAF_179_200, 0.05 mM vs solvent (2% DMSO)): 0.771
- log fold change ([1]; peptide 51 PELP1_169_190, 0.05 mM vs solvent (2% DMSO)): 0.496
- log fold change ([1]; peptide 52 PELP1_21_42, 0.05 mM vs solvent (2% DMSO)): 0.888
- log fold change ([1]; peptide 53 PELP1_447_468, 0.05 mM vs solvent (2% DMSO)): 0.771
- log fold change ([1]; peptide 54 PIAS2_7_28, 0.05 mM vs solvent (2% DMSO)): 0.383
- log fold change ([1]; peptide 55 PNRC1_306_327, 0.05 mM vs solvent (2% DMSO)): 0.568
- log fold change ([1]; peptide 56 PPRC1_152_173, 0.05 mM vs solvent (2% DMSO)): 0.380
- log fold change ([1]; peptide 57 PR285_1106_1127, 0.05 mM vs solvent (2% DMSO)): 1.167
- log fold change ([1]; peptide 58 PRGC1_134_154, 0.05 mM vs solvent (2% DMSO)): 1.669
- log fold change ([1]; peptide 59 PRGC2_146_166, 0.05 mM vs solvent (2% DMSO)): 0.902
- log fold change ([1]; peptide 60 PRGC2_338_358, 0.05 mM vs solvent (2% DMSO)): 1.230
- log fold change ([1]; peptide 61 PROX1_58_79, 0.05 mM vs solvent (2% DMSO)): 0.547
- log fold change ([1]; peptide 62 RAD9A_349_370, 0.05 mM vs solvent (2% DMSO)): 0.503
- log fold change ([1]; peptide 63 TIF1A_748_769, 0.05 mM vs solvent (2% DMSO)): 0.930
- log fold change ([1]; peptide 64 TIP60_477_498, 0.05 mM vs solvent (2% DMSO)): 0.672
- log fold change ([1]; peptide 65 TREF1_169_190, 0.05 mM vs solvent (2% DMSO)): 0.886
- log fold change ([1]; peptide 66 TRRAP_972_993, 0.05 mM vs solvent (2% DMSO)): 1.371
- log fold change ([1]; peptide 67 TRXR1_133_154, 0.05 mM vs solvent (2% DMSO)): 0.623
- log fold change ([1]; peptide 68 UBE3A_650_671, 0.05 mM vs solvent (2% DMSO)): 1.430
- log fold change ([1]; peptide 69 WIPI1_120_141, 0.05 mM vs solvent (2% DMSO)): 1.049
- log fold change ([1]; peptide 70 ZNHI3_90_111, 0.05 mM vs solvent (2% DMSO)): 0.814
- weighted log fold change ([2]; peptide 22 NCOA1_1421_1441): 1.715
- weighted log fold change ([2]; peptide 31 NCOA3_726_747): 0.515
- weighted log fold change ([2]; peptide 39 NR0B2_107_128): 0.769
- weighted log fold change ([2]; peptide 42 NRIP1_369_390): 0.128
- weighted log fold change ([2]; peptide 45 NRIP1_810_831): 0.057

Compound: Dexamethasone [Drug 3]
- binding to coregulator peptide no 22 NCOA1_1421_1444 compared to the negative control (NC), DMSO [1]: increased binding
